Measurements reported in patent US5070210A, “Novel ketenimines as intermediates for insecticides” (ICI Americas Inc., priority 1990, dated 1991).

Columns and labels:
Type in all cases: in vivo
[1] = system: Tobacco Budworm [Heliothis virescens (Fabricius)] eggs; experiment: Tobacco budworm egg test; details: 2-day old eggs, percent in solution
In short: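 Paper-towel patches of 2-day-old eggs dipped in acetone solutions of compound (0.1% downward), held on larval rearing medium at 78° F. Mortality scored once all control eggs had hatched and larvae were feeding; LC50 from dosage-mortality curves, expressed as percent compound in solution.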

[2] = system: Housefly [Musca domestica]; experiment: Housefly insecticidal test; details: μg per 25 female flies; mortality after 48 hours
In short: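 Acetone solutions (with 0.01% peanut oil) dried onto dish bottoms, then 25 female flies, 1-2 days old, caged over the residue with sugar water. Mortality scored at 48 hours; LC50 from dosage-mortality curves, in μg per 25 female flies, top level 100 μg.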

[3] = system: Aster Leafhopper [Macrosteles fascifrens (Stal)]; experiment: Aster leafhopper insecticidal test; details: adults/nymphs, percent in solution; 48 hours
In short: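 Three ~10 cm oat seedlings per cup were dipped 2-3 seconds in 50-50 acetone-water compound solutions, dried, and caged with ten adult/nymph leafhoppers. Mortality was counted after 48 hours at concentrations from 0.05% downward. LC50, as percent compound in solution, came from dosage-mortality curves.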

[4] = system: Rice water weevil [Lissorhoptrus oryzophilus (Kuschel)]; experiment: Rice water weevil insecticidal test; details: topical, μg per weevil; 48 hours
Protocol: The compounds in Tables 1 and 2 above were tested for insecticidal activity using the following testing procedures. LC50 values, based on the results of these tests and calculated according to dosage-mortality curves, are expressed in Table 3.
Rice water weevil [Lissorhoptrus oryzophilus (Kuschel)]:
Test compounds were diluted in acetone. Droplets (1 μl) of test solutions were applied to the ventral abdomens of ten female adult weevils. The treated weevils were placed in containers with wet cotton balls and rice foliage. The containers were covered and kept at a temperature of about 25° C. Mortality was recorded after 48 hours. Test concentrations ranged from […] or 2.5 μg per weevil down to that at which 50% mortality occurred. The LC50 values are expressed below in Table 3 under the heading "RWW" in terms of μg of test compound per weevil.

[5] = system: Cabbage Looper [Trichoplusia ni (Hubner)]; experiment: Cabbage looper insecticidal test; details: second-instar larvae, percent in solution; 3-5 days
In short: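 Squash cotyledons dipped 2-3 s in compound in 50-50 acetone-water, dried, then infested with 5 second-instar larvae and held at high humidity. Mortality scored after 3-5 days at concentrations from 0.1% downward. LC50 from dosage-mortality curves, expressed as percent compound in solution.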

[6] = system: Beet Armyworm (Spodoptera exigua); experiment: Beet armyworm insecticidal test; details: second-instar larvae, percent in solution; five days
In short: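 Sugar beet leaves dipped 2–3 s in compound diluted in 50:50 acetone-water, dried, then infested with five second-instar larvae in humid petri dishes. Mortality scored at 5 days; concentrations from 0.1% downward. LC50 from dosage-mortality curves, expressed as percent compound in solution.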

[7] = system: Maize weevil [Sitophilus Zeamais (Motschulsky)]; experiment: Maize weevil insecticidal test; details: adult weevils, percent in solution; 48 hours
In short: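 LC50, in percent of compound in solution, was derived from dosage-mortality curves after 48 h at about 25 °C. Ten adult weevils per container fed on four corn seeds briefly immersed in acetone:water (50:50) solutions of up to 0.01% and dried.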

[8] = system: Tobacco Budworm [Heliothis virescens (Fabricius)] larvae; experiment: Tobacco budworm contact test; details: second-instar larvae, percent in solution, 5 days
In short: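 Cotton cotyledons dipped 2–3 s in compound in 50-50 acetone-water, dried, then infested with 5 second-instar larvae and held 5 days at high humidity. Mortality scored; LC50 from dosage-mortality curves, expressed as percent compound in solution, concentrations from 0.1% downward.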

| Structure (SMILES) | LC50, TBW, E (TBW-E) [1] [%] | LC50, HF [2] [µg] | LC50, LH [3] [%] | LC50, RWW [4] [µg] | LC50, CL [5] [%] | LC50, BAW [6] [%] | LC50, MW [7] [%] | LC50, TBW, C (TBW-C) [8] [%] |
| --- | --- | --- | --- | --- | --- | --- | --- | --- |
| FC(F)(F)c1cccc(N=C(OCc2cccc(Oc3ccccc3)c2)C(Cl)Cl)c1 [Compound 66] | 0.06 | 9.7 | 0.001 | > 2.5 | < 0.0025 | 0.0065 | – | – |
| CCC(=Nc1ccc(F)c(Cl)c1)OCc1cccc(Oc2ccccc2)c1 [Compound 85] | > 0.1 | 7 | 0.003 | > 2.5 | 0.004 | – | > 0.01 | – |
| CC(C)C(=Nc1ccc(F)c(Cl)c1)OCc1cccc(Oc2cccc(F)c2)c1 [Compound 125] | 0.025 | 12 | > 0.05 | > 2.5 | 0.0007 | – | > 0.01 | – |
| CC(C)C(=Nc1ccc2c(c1)OCO2)OCc1ccc(F)c(Oc2ccccc2)c1 [Compound 181] | 0.01 | 25 | – | > 2.5 | 0.0005 | 0.001 | 0.005 | 0.001 |
| CC(C)C(=Nc1ccc(F)c(Cl)c1)OCc1cccc(Oc2ccc(F)cc2F)c1 [Compound 191] | 0.04 | 29 | > 0.05 | > 2.5 | 0.00023 | – | 0.004 | – |
| CC(C)C(=Nc1c(F)c(F)c(F)c(F)c1F)OCc1cccc(Oc2ccc(F)cc2)c1 [Compound 198] | > 0.1 | 52 | 0.05 | > 2.5 | 0.0005 | – | 0.003 | – |
| CC(C)C(=Nc1ccc2c(c1)OC(F)(F)O2)OCc1cccc(Oc2ccc(F)cc2)c1 [Compound 244] | > 0.1 | 14 | – | 0.09 | 0.00004 | 0.002 | 0.0025 | 0.00025 |
| CC(C)C(=Nc1ccc2c(c1)OC(F)(F)O2)OCc1cccc(Oc2ccccc2)c1 [Compound 245] | 0.016 | 20 | – | > 2.5 | 0.0035 | 0.001 | 0.006 | 0.0015 |
| CC(C)C(=Nc1ccc(F)c(I)c1)OCc1ccc(F)c(Oc2ccc(F)cc2)c1 [Compound 281] | 0.006 | 5 | – | > 2.5 | 0.00002 | 0.0027 | 0.005 | 0.00025 |
| CC(C)C(=Nc1ccc2c(c1)OC(F)(F)O2)OCc1ccc(F)c(Oc2ccccc2)c1 [Compound 285] | 0.005 | 36 | – | 0.13 | 0.000075 | 0.0006 | 0.005 | 0.00017 |
| CC(C)C(=Nc1ccc(Cl)c(Cl)c1)OCc1ccc(F)c(Oc2ccc(F)cc2)c1 [Compound 289] | 0.006 | 10 | 0.0003 | 0.082 | 0.00007 | – | > 0.01 | – |
| CC(C)C(=Nc1ccc(F)c(F)c1)OCc1ccc(F)c(Oc2ccc(Cl)cc2)c1 [Compound 295] | 0.01 | 7.8 | 0.0001 | > 2.5 | 0.00004 | – | 0.0053 | 0.0005 |
| CC(C)C(=Nc1ccc(Cl)c(Cl)c1)OCc1ccc(F)c(Oc2ccc(Cl)cc2)c1 [Compound 296] | 0.025 | 38 | 0.0003 | 0.14 | 0.00025 | – | – | 0.00045 |
| CC(C)C(=Nc1ccc(F)c(Br)c1)OCc1ccc(F)c(Oc2ccc(Cl)cc2)c1 [Compound 298] | 0.015 | 13 | 0.0001 | > 2.5 | 0.0001 | – | 0.008 | 0.0008 |
| CC(C)C(=Nc1ccc(F)c(C(F)(F)F)c1)OCc1ccc(F)c(Oc2ccccc2)c1 [Compound 300] | 0.024 | 14 | 0.00002 | 0.075 | 0.0003 | – | 0.01 | 0.001 |
| CC(C)C(=Nc1ccc(C(F)(F)F)cc1)OCc1ccc(F)c(Oc2ccc(Cl)cc2)c1 [Compound 324] | 0.025 | > 100 | – | 0.06 | 0.00014 | 0.0024 | – | 0.0004 |
| CC(C)C(=Nc1ccc(F)cc1)OCc1ccc(F)c(Oc2ccc(Cl)cc2)c1 [Compound 325] | 0.037 | 5 | – | > 2.5 | 0.00012 | 0.0025 | – | 0.0006 |
| CC(C)C(=Nc1ccc(F)c(Cl)c1F)OCc1ccc(F)c(Oc2ccc(F)cc2)c1 [Compound 330] | 0.037 | 5 | < 0.05 | 0.06 | 0.00012 | – | 0.001 | 0.00035 |
| CC(C)C(=Nc1ccc(F)c(Cl)c1F)OCc1cccc(Oc2ccc(Cl)cc2)c1 [Compound 331] | 0.04 | 20 | – | > 2.5 | 0.0002 | 0.002 | – | 0.0004 |
| CC(C)C(=Nc1ccc(F)c(F)c1)OCc1ccc(F)c(Oc2ccccc2)c1 [Compound 336] | 0.02 | 3.6 | – | > 2.5 | 0.00017 | 0.001 | 0.0091 | 0.0005 |
| CC(C)C(=Nc1ccc(C(F)(F)F)cc1)OCc1ccc(F)c(Oc2ccccc2)c1 [Compound 337] | 0.008 | 21 | – | 0.067 | 0.0007 | 0.0005 | 0.0053 | 0.0005 |
| CC(C)C(=Nc1ccc(OC(F)(F)F)cc1)OCc1ccc(F)c(Oc2ccccc2)c1 [Compound 338] | 0.01 | 26 | – | 0.044 | 0.000065 | – | 0.0053 | 0.00037 |
| CC(C)C(=Nc1ccc(F)c(Cl)c1F)OCc1ccc(F)c(Oc2ccccc2)c1 [Compound 451] | > 0.1 | 3.6 | 0.0002 | 0.065 | 0.0001 | – | 0.0051 | 0.00025 |
| CC(C)C(=Nc1ccc(F)c(Cl)c1)OCc1cccc(Oc2ccc(F)cc2)n1 [Compound 461] | 0.01 | 6 | – | > 2.5 | 0.00008 | 0.0035 | 0.0075 | – |
